# Measurements: patent publication US20250188083A1, “Modulators of Histone Acetyltransferase 1 and Methods of Treatment Thereof” (The Board of Trustees of the Leland Stanford Junior …, priority 2021, published 2025)
# pEC50, pIC50, pKi: −log10 of the molar value. Several values for one entry are separate records, joined by “and”; a condition that tells them apart may be missing. Equal entries are not always repeated.
# Assays:
# HCC1806 cell line = assay: Cell growth inhibition (CellTiter-Blue / resazurin); type: cell-based, human
# Protocol: (§1) hTert-HME1, HCC1806, HCC1937, A549 were maintained in a humified incubator at 37deg C. with 5% CO2. HCC1806 and HCC1937 were grown in RPMI with 10% FBS and 1% penicillin-streptomycin. A549 was grown in F-12 media with 10% FBS and 1% penicillin-streptomycin. hTert-HME1 was grown in Mammary Epithelial Growth Media (PromoCell). Drug treatments were performed in 96-well plates. Cells were seeded at 5000 cells per well, then allowed to attach overnight. Drug dilutions were made in 96-well plates then transferred to plate containing cells and incubated for 48-72 hours. Cell density was then determined by CellTiter-Blue (Promega). For capillary immunoassays hTert-HME1 5E5 cells were seeded in 10 cm plates and cultured for 48 hours, then cells were washed 2× in PBS and EGF-free MEGM was added overnight. The next day, cells were treated in EGF-free media with 1% dialyzed BSA+drug for 30 minutes, then EGF was added to the plate and cells were cultured for 8, 10 and 12 hours before harvesting. Microcapillary immunoassays were performed on a SimpleWestern Wes instrument using H4K12-Ac antibody (Abcam ab46983) at 1:25 dilution, H4K5-Ac antibody (Millipore 07-327) at 1:50 dilution, HAT1 (Abcam ab194296) at 1:50 dilution, nascent H4 (Abcam ab7311) at 1:10 dilution, nascent H3 (Abcam ab18521) at 1:50 dilution, actin (Thermo-Fisher MA5-15452) at 1:100 dilution.
# [1] = biological target: HAT1/Rbap46 enzyme complex (Homo sapiens, UniProt O14929); assay: HAT1 acetylation (acetyl-click) assay with 4-pentynoyl-CoA; type: biochemical; details: for inhibition of HAT1/Rbap46 by bi-substrate inhibitors: 10 μM; for pIC50: dose-response, 4-pentynoyl-CoA co-factor, read-out: IC50 for HAT1 enzymatic inhibition; for HAT1 inhibitory activity in library screens (rank, active or inactive): single-dose screening; for HAT1 inhibitory activity of flavonoids in dose-response: dose-response curves, FIG. 13
# Protocol: FIG. 6 provides a schematic of a histone acetyltransferase 1 (HAT1) acetylation assay in accordance with various embodiments. HAT1/Rbap46 purified enzyme complex is incubated with 4-pentynoyl-CoA and histone H4 N-terminal biotinylated peptide in the presence or absence of test compounds. Then reaction products are bound to neutravidin 96-well plate, washed, functionalized by copper(I)-catalyzed cycloaddition click chemistry with biotin-azide. Then, streptavidin-HRP is bound and detected by amplex red fluorescence reaction.
# Percent inhibition was calculated according the following formula: […]
# [2] = biological target: T1, bacterially-expressed recombinant HAT1 (Homo sapiens, UniProt O14929); details: Ngo, Brown, Zheng 2019; read-out: Ki towards recombinant HAT1; cited from earlier work
# T1 sequence (O14929 1-419): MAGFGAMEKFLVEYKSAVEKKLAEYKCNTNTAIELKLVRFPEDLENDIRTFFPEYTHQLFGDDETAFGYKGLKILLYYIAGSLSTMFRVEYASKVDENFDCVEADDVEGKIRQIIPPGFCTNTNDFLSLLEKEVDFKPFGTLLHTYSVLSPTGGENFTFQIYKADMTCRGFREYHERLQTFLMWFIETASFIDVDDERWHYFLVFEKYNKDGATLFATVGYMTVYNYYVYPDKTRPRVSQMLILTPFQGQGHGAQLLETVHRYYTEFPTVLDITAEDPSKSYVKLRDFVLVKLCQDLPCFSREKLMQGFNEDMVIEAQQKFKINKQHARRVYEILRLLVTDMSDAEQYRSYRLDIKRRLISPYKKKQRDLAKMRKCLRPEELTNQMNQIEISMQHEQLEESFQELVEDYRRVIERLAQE
# [3] = system: H4 lysine 5 and 12 acetylation; assay: Capillary immunoassay of H4 acetylation in hTert-HME1 cells; type: cell-based, human
# Protocol: At some timepoints, decreased H4 protein levels were also observed, consistent with prior studies of the effects of HAT1 depletion (J. J. Gruber, et al., Mol Cell 75:711-724 e5, 2019, cited supra).
# as §1, with “Microcapillary immunoassays were performed on a SimpleWestern Wes instrument using H4K12-Ac antibody (Abcam ab46983) at 1:25 dilution, H4K5-Ac antibody (Millipore 07-327) at 1:50 dilution, HAT1 (Abcam ab194296) at 1:50 dilution, nascent H4 (Abcam ab7311) at 1:10 dilution, nascent H3 (Abcam ab18521) at 1:50 dilution, actin (Thermo-Fisher MA5-15452) at 1:100 dilution.” left out
# A549 tumors = assay: A549 tumor growth in NSG mice
# Protocol: P-value calculated by least squares regression and extra sum-of-squares F-test. N=5 mice per group.
# A549 cells were infected with 3 lentiviral shRNAs targeting the human HAT1 mRNA (Origene #TL312517). Six-to-eight-week-old NSG female mice (Jackson Labs #005557) were shaved, then 500,000 A549 tumor cells were injected into bilateral flanks and tumor growth was assessed by tri-dimensional tumor measurements to yield tumor volumes. For drug treatments, analog 2016 was resuspended in a 1:1 mixture of PEG-400 and PBS+1% dialyzed BSA-0.2 μm-filtered (MilliporeSigma #12-660-910GM). Intraperitoneal injections (200 μL) were performed with a 21-G needle. Tumor measurements were performed with digital calipers.
# [4] = mouse, in vivo, ip
# p300 = biological target: T2, p300 (Homo sapiens, UniProt Q09472); assay: Other acetyltransferase assay (3H-Acetyl-CoA, Creative Biomart); type: biochemical; details: 10-point dose curve from 100 μM
# T2 construct: Creative Biomart (assay service)
# Protocol: (§2) Acetylation assays on 7 targets (CBP, GCN5, KAT5, MYST2/KAT7, MYST4/KAT6b, p300, pCAF) was performed by Creative Biomart. […] Reaction buffer was 50 mM Tris-HCL, 0.1 mM EDTA, 250 mM NaCl, 1 mM DTT, 1% DMSO, pH 8.0, using 3 μM 3H-Acetyl-CoA, reaction time of 1 hour at 30 degrees Celsius, with substrate conversion rate between 5-20%. Enzymes were diluted in reaction buffer, followed by addition of compound with Acoustic Technology in nanoliter range, incubated at room temperature for 20 minutes, then 3H-Acetyl-CoA was added. Reaction was incubated at 30 minutes at 30 degrees Celsius, then transferred to filter paper for detection.
# MYST2/KAT7 = biological target: T3, MYST2/KAT7 (Homo sapiens, UniProt O95251); assay: as above; type: biochemical; details: 10-point dose curve from 100 μM
# T3 construct: Creative Biomart (assay service)
# Protocol: as §2
# KAT5 = biological target: T4, KAT5 (Homo sapiens, UniProt Q92993); assay: as above; type: biochemical; details: 10-point dose curve from 100 μM
# T4 construct: Creative Biomart (assay service)
# Protocol: as §2
# GCN5 = biological target: T5, GCN5 (Homo sapiens, UniProt Q92830); assay: as above; type: biochemical; details: 10-point dose curve from 100 μM
# T5 construct: Creative Biomart (assay service)
# Protocol: as §2
# PCAF = biological target: T6, PCAF (Homo sapiens, UniProt Q92831); assay: as above; type: biochemical; details: 10-point dose curve from 100 μM
# T6 construct: Creative Biomart (assay service)
# Protocol: as §2
# MYST4/KAT6b = biological target: T7, MYST4/KAT6b (Homo sapiens, UniProt Q8WYB5); assay: as above; type: biochemical; details: 10-point dose curve from 100 μM
# T7 construct: Creative Biomart (assay service)
# Protocol: as §2
# CBP = biological target: T8, CBP (Homo sapiens, UniProt Q92793); assay: as above; type: biochemical; details: 10-point dose curve from 100 μM
# T8 construct: Creative Biomart (assay service)
# Protocol: as §2
# [5] = Fluorescence imaging of harvested organs (compound distribution); type: in vivo, mice; details: 24 hours
# Text: Organs were harvested and excited with UV light (230 nm) and imaged with a yellow-green filter.
# HCC1937 cell line = assay: Cell growth inhibition (CellTiter-Blue / resazurin); type: cell-based; details: Homo sapiens
# Protocol: as §1
# A549 cell line = assay: as above; type: cell-based; details: Homo sapiens
# Protocol: as §1
# HAT1/Rbap46 enzyme complex, sequence (Q16576 whole entry partner, one chain of several): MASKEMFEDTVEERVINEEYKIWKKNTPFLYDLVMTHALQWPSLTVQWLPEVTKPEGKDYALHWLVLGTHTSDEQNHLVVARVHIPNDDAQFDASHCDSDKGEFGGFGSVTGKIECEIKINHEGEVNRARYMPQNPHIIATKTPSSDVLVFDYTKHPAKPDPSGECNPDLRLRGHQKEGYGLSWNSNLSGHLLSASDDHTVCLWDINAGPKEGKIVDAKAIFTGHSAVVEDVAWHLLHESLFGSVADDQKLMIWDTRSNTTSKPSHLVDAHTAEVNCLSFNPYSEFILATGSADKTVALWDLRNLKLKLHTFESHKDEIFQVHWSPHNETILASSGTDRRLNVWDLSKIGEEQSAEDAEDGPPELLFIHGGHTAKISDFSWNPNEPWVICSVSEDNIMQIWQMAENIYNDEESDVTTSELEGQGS
# T2 sequence (Q09472 whole entry): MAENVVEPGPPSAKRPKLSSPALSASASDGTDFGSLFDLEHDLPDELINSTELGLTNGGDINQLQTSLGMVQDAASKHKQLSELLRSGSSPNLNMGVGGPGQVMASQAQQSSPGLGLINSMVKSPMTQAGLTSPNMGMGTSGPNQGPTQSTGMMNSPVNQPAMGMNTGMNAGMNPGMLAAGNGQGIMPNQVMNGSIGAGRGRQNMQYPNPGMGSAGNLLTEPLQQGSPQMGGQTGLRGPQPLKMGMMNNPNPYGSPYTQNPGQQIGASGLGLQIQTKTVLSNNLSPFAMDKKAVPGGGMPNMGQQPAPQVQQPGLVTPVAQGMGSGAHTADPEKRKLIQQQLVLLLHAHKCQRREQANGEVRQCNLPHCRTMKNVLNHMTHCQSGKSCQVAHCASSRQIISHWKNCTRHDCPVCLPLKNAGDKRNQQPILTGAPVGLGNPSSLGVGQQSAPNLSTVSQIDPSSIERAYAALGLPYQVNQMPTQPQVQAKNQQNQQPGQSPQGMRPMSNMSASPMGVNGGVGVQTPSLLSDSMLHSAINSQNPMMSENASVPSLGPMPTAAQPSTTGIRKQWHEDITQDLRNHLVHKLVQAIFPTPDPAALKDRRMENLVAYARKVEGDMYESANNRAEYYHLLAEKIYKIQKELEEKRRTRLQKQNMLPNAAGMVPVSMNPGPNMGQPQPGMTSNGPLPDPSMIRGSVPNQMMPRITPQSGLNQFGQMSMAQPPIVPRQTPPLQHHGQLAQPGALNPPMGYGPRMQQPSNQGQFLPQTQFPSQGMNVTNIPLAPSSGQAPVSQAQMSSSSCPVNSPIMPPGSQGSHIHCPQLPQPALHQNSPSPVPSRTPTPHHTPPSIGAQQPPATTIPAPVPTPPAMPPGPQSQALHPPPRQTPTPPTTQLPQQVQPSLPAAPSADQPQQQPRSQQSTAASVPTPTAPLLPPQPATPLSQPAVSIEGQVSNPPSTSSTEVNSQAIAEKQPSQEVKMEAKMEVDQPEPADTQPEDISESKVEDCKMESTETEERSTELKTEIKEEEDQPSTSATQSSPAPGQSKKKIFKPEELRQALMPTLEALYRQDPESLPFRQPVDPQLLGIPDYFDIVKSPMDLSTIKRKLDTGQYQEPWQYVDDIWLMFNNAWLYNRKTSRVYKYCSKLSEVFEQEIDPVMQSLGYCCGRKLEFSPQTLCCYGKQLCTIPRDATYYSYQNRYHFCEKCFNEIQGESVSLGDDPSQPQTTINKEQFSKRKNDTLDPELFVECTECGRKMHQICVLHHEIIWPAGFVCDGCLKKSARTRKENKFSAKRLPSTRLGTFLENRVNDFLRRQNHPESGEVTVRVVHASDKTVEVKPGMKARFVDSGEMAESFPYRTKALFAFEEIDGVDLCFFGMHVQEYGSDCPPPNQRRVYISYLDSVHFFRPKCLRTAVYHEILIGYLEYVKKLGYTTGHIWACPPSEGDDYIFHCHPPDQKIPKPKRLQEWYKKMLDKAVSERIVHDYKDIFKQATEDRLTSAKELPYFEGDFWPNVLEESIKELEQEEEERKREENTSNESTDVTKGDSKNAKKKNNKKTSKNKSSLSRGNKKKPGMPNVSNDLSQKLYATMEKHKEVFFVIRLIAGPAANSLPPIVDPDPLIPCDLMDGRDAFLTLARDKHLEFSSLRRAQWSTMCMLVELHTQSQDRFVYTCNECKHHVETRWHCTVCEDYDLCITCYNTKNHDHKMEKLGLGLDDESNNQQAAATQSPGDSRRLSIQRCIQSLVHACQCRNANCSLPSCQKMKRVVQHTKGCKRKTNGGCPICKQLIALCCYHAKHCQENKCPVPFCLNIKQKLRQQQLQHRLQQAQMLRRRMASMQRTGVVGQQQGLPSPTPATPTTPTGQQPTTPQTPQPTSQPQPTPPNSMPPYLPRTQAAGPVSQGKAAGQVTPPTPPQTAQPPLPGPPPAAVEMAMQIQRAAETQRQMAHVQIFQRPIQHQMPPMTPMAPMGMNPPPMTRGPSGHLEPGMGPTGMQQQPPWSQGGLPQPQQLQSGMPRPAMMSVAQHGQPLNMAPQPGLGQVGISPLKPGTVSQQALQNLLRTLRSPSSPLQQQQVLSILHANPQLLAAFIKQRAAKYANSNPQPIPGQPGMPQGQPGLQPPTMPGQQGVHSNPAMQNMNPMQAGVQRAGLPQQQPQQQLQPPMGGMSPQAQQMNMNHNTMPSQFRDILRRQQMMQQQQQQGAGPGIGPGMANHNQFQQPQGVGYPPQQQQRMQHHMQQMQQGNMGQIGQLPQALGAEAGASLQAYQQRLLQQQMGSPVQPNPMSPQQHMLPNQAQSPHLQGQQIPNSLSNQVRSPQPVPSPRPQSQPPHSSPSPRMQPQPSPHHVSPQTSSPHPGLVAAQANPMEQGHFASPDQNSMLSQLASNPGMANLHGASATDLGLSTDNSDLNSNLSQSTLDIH
# T7 sequence (Q8WYB5 whole entry): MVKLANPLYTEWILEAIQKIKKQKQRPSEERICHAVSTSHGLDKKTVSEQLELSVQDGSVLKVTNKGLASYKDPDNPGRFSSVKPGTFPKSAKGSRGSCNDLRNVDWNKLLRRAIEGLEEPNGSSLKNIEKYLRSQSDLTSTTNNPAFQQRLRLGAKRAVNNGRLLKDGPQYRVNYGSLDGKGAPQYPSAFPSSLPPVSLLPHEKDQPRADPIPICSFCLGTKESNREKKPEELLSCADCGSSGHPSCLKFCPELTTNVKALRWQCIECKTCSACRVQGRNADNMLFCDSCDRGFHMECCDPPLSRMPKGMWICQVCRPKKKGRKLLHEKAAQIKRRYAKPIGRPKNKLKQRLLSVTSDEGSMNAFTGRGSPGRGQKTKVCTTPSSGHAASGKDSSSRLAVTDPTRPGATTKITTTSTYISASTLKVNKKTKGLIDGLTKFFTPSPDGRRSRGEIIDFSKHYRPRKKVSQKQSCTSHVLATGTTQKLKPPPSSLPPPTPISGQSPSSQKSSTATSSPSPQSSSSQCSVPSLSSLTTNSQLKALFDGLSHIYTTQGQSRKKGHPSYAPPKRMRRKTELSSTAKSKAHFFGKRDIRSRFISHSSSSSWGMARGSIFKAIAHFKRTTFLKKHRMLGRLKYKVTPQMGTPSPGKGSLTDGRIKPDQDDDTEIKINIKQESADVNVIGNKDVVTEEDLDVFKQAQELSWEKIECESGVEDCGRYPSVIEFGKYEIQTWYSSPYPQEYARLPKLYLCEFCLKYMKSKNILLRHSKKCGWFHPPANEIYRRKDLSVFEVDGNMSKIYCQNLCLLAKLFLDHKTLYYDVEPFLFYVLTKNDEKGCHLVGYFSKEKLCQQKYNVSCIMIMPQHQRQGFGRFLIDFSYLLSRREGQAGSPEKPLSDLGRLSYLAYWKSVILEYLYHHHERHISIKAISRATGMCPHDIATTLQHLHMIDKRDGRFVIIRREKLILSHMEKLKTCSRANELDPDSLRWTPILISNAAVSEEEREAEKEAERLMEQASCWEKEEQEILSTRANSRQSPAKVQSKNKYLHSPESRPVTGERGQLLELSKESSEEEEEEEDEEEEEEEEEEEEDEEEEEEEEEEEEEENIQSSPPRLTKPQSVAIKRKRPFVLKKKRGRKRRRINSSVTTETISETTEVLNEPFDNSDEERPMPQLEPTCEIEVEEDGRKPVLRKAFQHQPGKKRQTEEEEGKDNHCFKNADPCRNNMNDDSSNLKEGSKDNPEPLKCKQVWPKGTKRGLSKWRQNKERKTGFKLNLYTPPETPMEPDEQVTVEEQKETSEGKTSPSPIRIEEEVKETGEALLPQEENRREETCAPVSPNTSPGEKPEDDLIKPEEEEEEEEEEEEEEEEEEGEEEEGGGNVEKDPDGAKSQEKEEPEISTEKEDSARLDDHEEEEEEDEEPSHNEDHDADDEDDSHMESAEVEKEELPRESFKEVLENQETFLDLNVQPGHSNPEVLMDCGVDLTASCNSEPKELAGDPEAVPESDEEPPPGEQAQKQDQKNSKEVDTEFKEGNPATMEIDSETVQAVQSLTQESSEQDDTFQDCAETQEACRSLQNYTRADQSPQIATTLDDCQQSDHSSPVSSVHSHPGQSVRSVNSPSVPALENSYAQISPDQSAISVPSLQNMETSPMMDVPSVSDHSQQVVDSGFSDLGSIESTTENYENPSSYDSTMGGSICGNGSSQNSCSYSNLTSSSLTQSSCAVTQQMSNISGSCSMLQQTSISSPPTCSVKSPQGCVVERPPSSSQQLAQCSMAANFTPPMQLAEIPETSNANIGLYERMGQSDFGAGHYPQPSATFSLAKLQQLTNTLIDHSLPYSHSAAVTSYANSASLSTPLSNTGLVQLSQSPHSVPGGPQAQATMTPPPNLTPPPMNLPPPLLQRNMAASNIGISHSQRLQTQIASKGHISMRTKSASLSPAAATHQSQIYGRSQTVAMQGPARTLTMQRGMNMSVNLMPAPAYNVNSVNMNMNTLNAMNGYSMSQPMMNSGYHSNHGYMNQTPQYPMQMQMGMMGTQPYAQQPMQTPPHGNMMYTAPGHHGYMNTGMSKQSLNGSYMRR
compound,measurement,setting,value
H4K12-CoA: co-enzyme A chemically ligated to the ζ-amine of lysine 12 in the histone H4 N-terminal 20-mer peptide,cell growth inhibition,HCC1806 cell line,no inhibitory activity
same,inhibition of HAT1/Rbap46 by bi-substrate inhibitors,[1],robust inhibition
same,pIC50,[1],~6.00
same,pKi,[2],~9.00
"Cc1cc2nc3c(=O)[nH]c(=O)nc-3n(C[C@H](O)[C@H](O)[C@H](O)CO)c2cc1N(C)C [roseoflavin, reference compound]",cell growth inhibition,HCC1806 cell line,strong cell growth inhibitory properties
same,"HAT1 inhibitory activity in library screens (rank, active or inactive)",[1],inactive
"Cc1cc2nc3c(=O)[nH]c(=O)nc-3n(C[C@H](O)[C@H](O)[C@H](O)COP(=O)(O)OP(=O)(O)OC[C@H]3O[C@@H](n4cnc5c(N)ncnc54)[C@H](O)[C@@H]3O)c2cc1C [FAD, flavin-adenine-dinucleotide]",HAT1 inhibitory activity of flavonoids in dose-response,[1],no detectable inhibitory activity
Cc1cc2nc3[nH]c(=O)[nH]c(=O)c3nc2cc1C [di-methyl-alloxazine],HAT1 inhibitory activity of flavonoids in dose-response,[1],no detectable inhibitory activity
COC1=C(N)C(=O)c2nc(-c3nc(C(=O)O)c(C)c(-c4ccc(OC)c(OC)c4O)c3N)ccc2C1=O [NSC-83950],"HAT1 inhibitory activity in library screens (rank, active or inactive)",[1],inhibitory activity
"CCc1cc2c(cc1Cl)nc1c(=O)[nH]c(=O)nc-1n2CCOCC(C)C [JG-2016, 7-chloro-8-ethyl-10-(2-isobutoxyethyl)benzo[g]pteridine-2,4(3H, 10H)-dione]",time course of H4 acetylation inhibition,"[3]; hTert-HME1, EGF stimulation 8, 10, 12 hours",on-target inhibition as early as 8 hours post-treatment that persisted through 12 hours
same,inhibition of H4 lysine 5 and 12 acetylation,"[3]; hTert-HME1, dose series",dose-dependent inhibition
same,tumor growth versus vehicle,A549 tumors; 50 mg/kg and 100 mg/kg i.p. once every three days from day 13,significantly impaired tumor growth
same,dose-response of tumor growth suppression,A549 tumors; higher dose (100 mg/kg) compared to lower dose (50 mg/kg),more profound suppression of tumor growth
same,cell growth inhibition,HCC1806 cell line,among the most potent inhibitors of cell growth
same,pEC50,HCC1806 cell line; Homo sapiens,4.98
same,tolerated single intraperitoneal dose with minimal toxicity,[4],up to 250 mg/kg
same,toxicity signs,[4]; 500 mg/kg,signs of distress
same,pIC50,p300,4.13
same,pIC50,MYST2/KAT7,4.07
same,inhibitory activity towards KAT5,KAT5,minimal or undetectable inhibitory activity
same,inhibitory activity towards GCN5,GCN5,minimal or undetectable inhibitory activity
same,inhibitory activity towards PCAF,PCAF,minimal or undetectable inhibitory activity
same,inhibitory activity towards MYST4/KAT6b,MYST4/KAT6b,minimal or undetectable inhibitory activity
same,pIC50,CBP,4.04
same,tissue accumulation by fluorescence imaging,"[5]; healthy mice, 500 mg/kg i.p.",high accumulation adipose tissue
same,tissue accumulation by fluorescence imaging,"[5]; mice bearing bilateral A549 tumors, 100 mg/kg once","compound accumulation in subcutaneous adipose tissues (SAT), visceral adipose tissue (VAT), and tumors"
same,pEC50,HCC1937 cell line,4.53
same,pEC50,A549 cell line,5.72
same,pIC50,A549 cell line; read-out: IC50 required to impair cell proliferation,5.72
CC(=O)OCCn1c2nc(=O)[nH]c(=O)c-2nc2cc(C)c(C)cc21 [NSC-3064],"HAT1 inhibitory activity in library screens (rank, active or inactive)",[1],top hit
"Cc1cc2nc3c(=O)[nH]c(=O)nc-3n(C[C@H](O)[C@H](O)[C@H](O)COP(=O)(O)O)c2cc1C [FMN, flavin-mononucleotide]",HAT1 inhibitory activity of flavonoids in dose-response,[1],no detectable inhibitory activity
CCc1cc2c(cc1Cl)nc1c(=O)[nH]c(=O)nc-1n2CCOCc1cccc(F)c1 [JG-2069],"HAT1 inhibitory activity in library screens (rank, active or inactive)",[1],interfered with enzyme inhibition
CCc1cc2c(cc1Cl)nc1c(=O)[nH]c(=O)nc-1n2CCCOc1cccc(C#N)c1 [JG-2088],"HAT1 inhibitory activity in library screens (rank, active or inactive)",[1],interfered with enzyme inhibition
O=C(O)Cc1ccc(N=Nc2c(O)c(C(=O)O)cc3ccccc23)cc1 [NSC-156563],"HAT1 inhibitory activity in library screens (rank, active or inactive)",[1],inhibitory activity
CC(C)(COP(=O)(O)OP(=O)(O)OC[C@H]1O[C@@H](n2cnc3c(N)ncnc32)[C@H](O)[C@@H]1OP(=O)(O)O)[C@@H](O)C(=O)NCCC(=O)NCCSC(=O)[C@@H](N)CCCCN [lysyl-CoA],inhibition of HAT1/Rbap46 by bi-substrate inhibitors,[1],no inhibitory activity
O=c1nc2n(C[C@H](O)[C@H](O)[C@H](O)CO)c3cc(Cl)c(Cl)cc3nc-2c(=O)[nH]1 [NSC-42186],pIC50,[1],4.22 and 4.42
same,% inhibition of HAT1 activity,[1]; single dose 100 μM,31%
NC(=S)c1cn(C2OC(CO)C(O)C2O)c2ncnc(N)c12 (stereo not drawn) [NSC-105827],"HAT1 inhibitory activity in library screens (rank, active or inactive)",[1],inhibitory activity
CCc1cc2c(cc1Cl)nc1c(=O)[nH]c(=O)nc-1n2CCOCc1ccc(C#N)cc1 [JG-2092],"HAT1 inhibitory activity in library screens (rank, active or inactive)",[1],interfered with enzyme inhibition
CCCC(=O)OC[C@@H](OC(=O)CCC)[C@@H](OC(=O)CCC)[C@H](Cn1c2nc(=O)[nH]c(=O)c-2nc2cc(C)c(C)cc21)OC(=O)CCC [riboflavin tetrabutyrate],pIC50,[1],4.77
Cc1cc2cc3c(=O)[nH]c(=O)cc-3n(CC(O)C(O)C(O)CO)c2cc1C (stereo not drawn) [NSC-275266],"HAT1 inhibitory activity in library screens (rank, active or inactive)",[1],fifth best hit
Oc1ccccc1-c1nc2c3ccccc3c3ccccc3c2[nH]1 [NSC-332670],"HAT1 inhibitory activity in library screens (rank, active or inactive)",[1],inhibitory activity
